Reference: patent US10245275B2 (ViiV HEALTHCARE UK (NO.4) LIMITED, priority 2014, dated 2019)
Where two headings read alike, the source gives them in different places.

What was measured:
[1] = system: WT (wild-type HIV virus; recombinant NL4-3 virus); assay: microbe, parasite or virus in culture; type: cell-based, HIV-1
Outline: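 MT-2 cells infected 4-5 days with NL4-3 carrying Renilla luciferase in place of part of nef (Gag P373S), virus made by 293T transfection, with serial inhibitor dilutions. Antiviral activity read as luciferase activity by a modified dual-luciferase read-out.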

[2] = system: HIV-1 NL4-3 gag A364V virus; assay: microbe, parasite or virus in culture; type: cell-based
Outline: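 Recombinant NL4-3 reporter virus with Renilla luciferase replacing part of nef, made by transfection of 293T cells. MT-2 cells infected for 4-5 days with serial inhibitor dilutions; antiviral activity quantified by luciferase activity.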

[3] = Human immunodeficiency virus 1, NL43, MT2, read-out: WT (EC50, uM), Table 1 regular screen, class symbol
[4] = Human immunodeficiency virus 1, NL43, MT2, read-out: A364V (EC50, uM), Table 1 regular screen, class symbol
[5] = Human immunodeficiency virus 1, NL43, MT2, read-out: WT (EC50, uM), Table 1 regular screen, MT-2 cells, luciferase readout
[6] = Human immunodeficiency virus 1, NL43, MT2, read-out: A364V (EC50, uM), Table 1 regular screen, MT-2 cells, luciferase readout

## C=C(C)[C@@H]1CC[C@]2(NCCN3CCS(=O)(=O)CC(C)C3)CC[C@]3(C)[C@H](CC[C@@H]4[C@@]5(C)CC=C(C6=CC[C@@](CF)(C(=O)O)CC6)C(C)(C)[C@@H]5CC[C@]43C)[C@@H]12 (stereo partly drawn) [Example 26, (1R)-1-(fluoromethyl)-4-((1R,3aS,5aR,5bR,7aR,11aS,11bR,13aR,13bR)-5a,5b,8,8,11a-pentamethyl-3a-((2-(6-methyl-1,1-dioxido-1,4-thiazepan-4-yl)ethyl)amino)-1-(prop-1-en-2-yl)-2,3,3a,4,5,5a,5b,6,7,7a,8,11,11a,11b,12,13,13a,13b-octadecahydro-1H-cyclopenta[a]chrysen-9-yl)cyclohex-3-enecarboxylic acid]
[1]; [3]
  EC50: < 0.05 µM
[2]; [4]
  EC50: > 0.05 µM

## C=C(C)[C@@H]1CC[C@]2(NCC(=O)N3CCS(=O)(=O)C3)CC[C@]3(C)[C@H](CC[C@@H]4[C@@]5(C)CC=C(C6=CC[C@](CF)(C(=O)O)CC6)C(C)(C)[C@@H]5CC[C@]43C)[C@@H]12 [Example 35, (S)-4-((1R,3aS,5aR,5bR,7aR,11aS,11bR,13aR,13bR)-3a-((2-(1,1-dioxidothiazolidin-3-yl)-2-oxoethyl)amino)-5a,5b,8,8,11a-pentamethyl-1-(prop-1-en-2-yl)-2,3,3a,4,5,5a,5b,6,7,7a,8,11,11a,11b,12,13,13a,13b-octadecahydro-1H-cyclopenta[a]chrysen-9-yl)-1-(fluoromethyl)cyclohex-3-enecarboxylic acid]
[1]; [5]
  EC50: 0.00157 µM
[2]; [6]
  EC50: 0.157 µM

## C=C(C)[C@@H]1CC[C@]2(NCCN3CCNC3=O)CC[C@]3(C)[C@H](CC[C@@H]4[C@@]5(C)CC=C(C6=CC[C@](CF)(C(=O)O)CC6)C(C)(C)[C@@H]5CC[C@]43C)[C@@H]12 [Example 2-25, (S)-1-(fluoromethyl)-4-((1R,3aS,5aR,5bR,7aR,11aS,11bR,13aR,13bR)-5a,5b, 8,8,11a-pentamethyl-3a-((2-(2-oxoimidazolidin-1-yl)ethyl)amino)-1-(prop-1-en-2-yl)-2,3,3a,4,5,5a,5b,6,7,7a,8,11,11a,11b,12,13,13a,13b-octadecahydro-1H-cyclopenta[a]chrysen-9-yl)cyclohex-3-enecarboxylic acid]
[1]; [3]
  EC50: < 0.05 µM
[2]; [4]
  EC50: > 0.05 µM

## CC(C)[C@@H]1CC[C@]2(NCCN3CCS(=O)(=O)CC3)CC[C@]3(C)[C@H](CC[C@@H]4[C@@]5(C)CC=C(C6CCC(CF)(C(=O)O)CC6)C(C)(C)[C@@H]5CC[C@]43C)[C@@H]12 (stereo partly drawn) [Example 23, 4-((1S,3aS,5aR,5bR,7aR,11aS,11bR,13aR,13bR)-3a-((2-(1,1-dioxidothiomorpholino)ethyl)amino)-1-isopropyl-5a,5b, 8,8,11a-pentamethyl-2,3,3a,4,5,5a,5b,6,7,7a,8,11,11a,11b,12,13,13a,13b-octadecahydro-1H-cyclopenta[a]chrysen-9-yl)-1-(fluoromethyl)cyclohexanecarboxylic acid]
[1]; [3]
  EC50: < 0.05 µM
[2]; [4]
  EC50: > 0.05 µM

## C=C(C)[C@@H]1CC[C@]2(NCCC(C)C)CC[C@]3(C)[C@H](CC[C@@H]4[C@@]5(C)CC=C(C6=CC[C@](CF)(C(=O)O)CC6)C(C)(C)[C@@H]5CC[C@]43C)[C@@H]12 [Example 2-7, (S)-1-(fluoromethyl)-4-((1R,3aS,5aR,5bR,7aR,11aS,11bR,13aR,13bR)-3a-(isopentylamino)-5a,5b,8,8,11a-pentamethyl-1-(prop-1-en-2-yl)-2,3,3a,4,5,5a,5b,6,7,7a,8,11,11a,11b,12,13,13a,13b-octadecahydro-1H-cyclopenta[a]chrysen-9-yl)cyclohex-3-enecarboxylic acid]
[1]; [5]
  EC50: 0.116 µM
[2]; [6]
  EC50: 3 µM

## C=C(C)[C@@H]1CC[C@]2(NC(CN)C(F)(F)F)CC[C@]3(C)[C@H](CC[C@@H]4[C@@]5(C)CC=C(C6=CC[C@](CF)(C(=O)O)CC6)C(C)(C)[C@@H]5CC[C@]43C)[C@@H]12 (single isomer, unassigned) [Example 39]
[1]; [5]
  EC50: 0.0473 µM
[2]; [6]
  EC50: 2.03 µM

## C=C(C)[C@@H]1CC[C@]2(NCCC3(O)CCC3)CC[C@]3(C)[C@H](CC[C@@H]4[C@@]5(C)CC=C(C6=CC[C@](CF)(C(=O)O)CC6)C(C)(C)[C@@H]5CC[C@]43C)[C@@H]12 [Example 2-9, (S)-1-(fluoromethyl)-4-((1R,3aS,5aR,5bR,7aR,11aS,11bR,13aR,13bR)-3a-((2-(1-hydroxycyclobutyl)ethyl)amino)-5a,5b,8,8,11a-pentamethyl-1-(prop-1-en-2-yl)-2,3,3a,4,5,5a,5b,6,7,7a,8,11,11a,11b,12,13,13a,13b-octadecahydro-1H-cyclopenta[a]chrysen-9-yl)cyclohex-3-enecarboxylic acid]
[1]; [3]
  EC50: < 0.05 µM
[2]; [4]
  EC50: > 0.05 µM

## C=C(C)[C@@H]1CC[C@]2(NCC(C)(C)O)CC[C@]3(C)[C@H](CC[C@@H]4[C@@]5(C)CC=C(C6=CC[C@](CF)(C(=O)O)CC6)C(C)(C)[C@@H]5CC[C@]43C)[C@@H]12 [Example 2-2, (S)-1-(fluoromethyl)-4-((1R,3aS,5aR,5bR,7aR,11aS,11bR,13aR,13bR)-3a-((2-hydroxy-2-methylpropyl)amino)-5a,5b,8,8,11a-pentamethyl-1-(prop-1-en-2-yl)-2,3,3a,4,5,5a,5b,6,7,7a,8,11,11a,11b,12,13,13a,13b-octadecahydro-1H-cyclopenta[a]chrysen-9-yl)cyclohex-3-enecarboxylic acid]
[1]; [3]
  EC50: < 0.05 µM
[2]; [4]
  EC50: > 0.05 µM

## C=C(C)[C@@H]1CC[C@]2(NCCN3CCS(=O)(=O)CC3C(=O)OCC)CC[C@]3(C)[C@H](CC[C@@H]4[C@@]5(C)CC=C(C6=CC[C@@](CF)(C(=O)O)CC6)C(C)(C)[C@@H]5CC[C@]43C)[C@@H]12 (single isomer, unassigned) [Example 14]
[1]; [3]
  EC50: < 0.05 µM
[2]; [4]
  EC50: < 0.05 µM

## C=C(C)[C@@H]1CC[C@]2(NCCCN3CCCC3=O)CC[C@]3(C)[C@H](CC[C@@H]4[C@@]5(C)CC=C(C6=CC[C@](CF)(C(=O)O)CC6)C(C)(C)[C@@H]5CC[C@]43C)[C@@H]12 [Example 21, (S)-1-(fluoromethyl)-4-((1R,3aS,5aR,5bR,7aR,11aS,11bR,13aR,13bR)-5a,5b,8,8,11a-pentamethyl-3a-((3-(2-oxopyrrolidin-1-yl)propyl)amino)-1-(prop-1-en-2-yl)-2,3,3a,4,5,5a,5b,6,7,7a,8,11,11a,11b,12,13,13a,13b-octadecahydro-1H-cyclopenta[a]chrysen-9-yl)cyclohex-3-enecarboxylic acid]
[1]; [3]
  EC50: < 0.05 µM
[2]; [4]
  EC50: > 0.05 µM

## C=C(C)[C@@H]1CC[C@]2(NC(CN3CCS(=O)(=O)CC3)C(F)(F)F)CC[C@]3(C)[C@H](CC[C@@H]4[C@@]5(C)CC=C(C6=CC[C@](CF)(C(=O)O)CC6)C(C)(C)[C@@H]5CC[C@]43C)[C@@H]12 (single isomer, unassigned) [Example 42]
[1]; [3]
  EC50: > 0.05 µM
[2]; [4]
  EC50: > 0.05 µM

## C=C(C)[C@@H]1CC[C@]2(NCC(=O)N3CCC(S(C)(=O)=O)C3)CC[C@]3(C)[C@H](CC[C@@H]4[C@@]5(C)CC=C(C6=CC[C@](CF)(C(=O)O)CC6)C(C)(C)[C@@H]5CC[C@]43C)[C@@H]12 (stereo partly drawn) [Example 36, (1S)-1-(fluoromethyl)-4-((1R,3aS,5aR,5bR,7aR,11aS,11bR,13aR,13bR)-5a,5b, 8,8,11a-pentamethyl-3a-((2-(3-(methylsulfonyl)pyrrolidin-1-yl)-2-oxoethyl)amino)-1-(prop-1-en-2-yl)-2,3,3a,4,5,5a,5b,6,7,7a,8,11,11a,11b,12,13,13a,13b-octadecahydro-1H-cyclopenta[a]chrysen-9-yl)cyclohex-3-enecarboxylic acid]
[1]; [3]
  EC50: < 0.05 µM
[2]; [4]
  EC50: > 0.05 µM

## C=C(C)[C@@H]1CC[C@]2(NCCN3CCC(C)(O)CC3)CC[C@]3(C)[C@H](CC[C@@H]4[C@@]5(C)CC=C(C6=CC[C@](CF)(C(=O)O)CC6)C(C)(C)[C@@H]5CC[C@]43C)[C@@H]12 [Example 2-23, (S)-1-(fluoromethyl)-4-((1R,3aS,5aR,5bR,7aR,11aS,11bR,13aR,13bR)-3a-((2-(4-hydroxy-4-methylpiperidin-1-yl)ethyl)amino)-5a,5b,8,8,11a-pentamethyl-1-(prop-1-en-2-yl)-2,3,3a,4,5,5a,5b,6,7,7a,8,11,11a,11b,12,13,13a,13b-octadecahydro-1H-cyclopenta[a]chrysen-9-yl)cyclohex-3-enecarboxylic acid]
[1]; [5]
  EC50: 0.00121 µM
[2]; [6]
  EC50: 0.0597 µM

## C=C(C)[C@@H]1CC[C@]2(NCCO)CC[C@]3(C)[C@H](CC[C@@H]4[C@@]5(C)CC=C(C6=CC[C@@](CF)(C(=O)O)CC6)C(C)(C)[C@@H]5CC[C@]43C)[C@@H]12 [Example 19, (R)-1-(fluoromethyl)-4-((1R,3aS,5aR,5bR,7aR,11aS,11bR,13aR,13bR)-3a-((2-hydroxyethyl)amino)-5a,5b,8,8,11a-pentamethyl-1-(prop-1-en-2-yl)-2,3,3a,4,5,5a,5b,6,7,7a,8,11,11a,11b,12,13,13a,13b-octadecahydro-1H-cyclopenta[a]chrysen-9-yl)cyclohex-3-enecarboxylic acid]
[1]; Human immunodeficiency virus 1, NL43, MT2, read-out: WT (EC50, uM)
  EC50: < 0.05 µM
[2]; Human immunodeficiency virus 1, NL43, MT2, read-out: A364V (EC50, uM)
  EC50: > 0.05 µM
